Reference: patent US20150273010A1 (priority 2012, published 2015)

Assays:
Assay type in all cases: cell-based
HIV-1 PR [1] = biological target: T1, HIV-1 PR (Human immunodeficiency virus type 1 group M subtype B, UniProt P04585)
Source text: For that purpose, the well-characterized PR/RT and RT/IN HIV-1 boundaries were introduced between the Gal4 domains.

HIV-1 PR [2] = biological target: T1, HIV-1 PR; conditions: 293T cells, PR/RT cleavage site, added as PI
HIV-1 PR [3] = biological target: T1, HIV-1 PR; conditions: 10 μM; Gal4/PR SupT1 clones, 1 μg/mL Dox
SupT1 cells = test: Toxicity of PI to cells during the Gal4/library/PR screen; conditions: 100.M Indinavir, with PR as part of a fusion, time frame required for the screen
Source text: The screen starts with the addition of Dox. In alternative embodiments, cells can be non-fluorescent and not contain a Gal4/library fusion protein at all, or they can express a fusion protein cleaved by HIV-1 PR or cellular proteases. Cells expressing a non-cleaved fusion can be fluorescent (FIG. 10A panel a) as they will be able to activate the E2-Crimson reporter. This population is not of interest in this screen. In alternative embodiments, the non-fluorescent population is sorted and expanded (FIG. 10A panel b). In alternative embodiments, cells are then treated again with Dox, but this time in the presence of PI (100.M Indinavir). We have shown that Indinavir at this concentration, and PR as part of a fusion, are not toxic at least for the time frame required for the screen. Only the subpopulation of cells that express a substrate specific for PR should turn fluorescent and thus be E2-Crimson positive (FIG. 10A panel c). In alternative embodiments, this population is sorted and amplified (FIG. 10A panel d) and used to obtain individual clonal populations by growing individual cells in a 96-well format.

HIV-1 PR [4] = biological target: T1, HIV-1 PR; conditions: HEK 293T co-transfected with p55 and PR, 48 hours post-transfection, PI present
Experimental: Transfected cells were analyzed 48 hours post-transfection with anti-p24 antibody. […] Quantification of the Western blots by IMAGEJ™ (ImageJ™) software. Band intensities are plotted as a ratio of p24 to p55.
We performed a biochemical assay to assess PR activity based on its ability to cleave one of its natural substrates—the p55 Gag poly-protein. For this purpose, p96ZM651gag-opt (from the NIH AIDS reagent program) with humanized codons for optimal expression, was used as substrate. Cells were co-transfected with p55 and PR in the presence or absence of Ritonavir as PI. Cells were then analyzed by western blot 48 hours post-transfection with antibodies against HIV p24, capsid (NIH AIDS reagent program).

[5] = tested on: self-inactivating pseudo-typed HIV-1 (sinHIV-GFP); test: sinHIV-GFP infection screen of SupT1 cells expressing nuclear random peptide library (FACS); conditions: clones isolated after 12 rounds of infection/selection; compared to the mCherry control
Experimental: A retroviral random peptide library localized to the nucleus, 3XF(GGS)3 NLS RPL, was used to search for novel inhibitors of HIV-1. In order to screen a population of SupT1 expressing this library, a self-inactivating pseudo-typed HIV-1 carrying a pCMV-GFP expression cassette was utilized. The 3XF(GGS)3 NLS RPL SupT1 cells and cells expressing pBMN.i.mCherry were then screened by infection with sinHIV-GFP. 72 hours post-infection, the cells were sorted by Fluorescence Activated Cell Sorting (FACS) based on the expression of GFP, retaining and expanding GFP-negative cells in culture. […] Following 12 rounds of infection, selection of non-fluorescent cells and amplification of the 3XF(GGS)3 NLS RPL expressing SupT1 cells, eight clones were isolated, and expanded in culture.

For `CC(C)CN(C[C@@H](O)[C@H](Cc1ccccc1)NC(=O)O[C@H]1CO[C@H]2OCC[C@H]21)S(=O)(=O)c1ccc(N)cc1` [Darunavir, darunavir], the “inhibition of PR-dependent decrease in E2-C fluorescence” value (HIV-1 PR [1]) was “strongly inhibited” and the “reversal of PR-dependent reduction in green fluorescence” value (HIV-1 PR [2]) was “the trend was reversed”.

`CC(C)(C)NC(=O)[C@@H]1CN(Cc2cccnc2)CCN1C[C@@H](O)C[C@@H](Cc1ccccc1)C(=O)N[C@H]1c2ccccc2C[C@H]1O` [Indinavir] was tested, and the “PR inhibition read as GFP induction” value (HIV-1 PR [3]) was “inhibited PR, allowing robust GFP induction” and the toxicity (SupT1 cells) was “not toxic”.

With `CC(C)c1nc(CN(C)C(=O)N[C@H](C(=O)N[C@@H](Cc2ccccc2)C[C@H](O)[C@H](Cc2ccccc2)NC(=O)OCc2cncs2)C(C)C)cs1` [Ritonavir] the “p55 Gag poly-protein processing by PR” value (HIV-1 PR [4]) was “poly-protein processing is hindered”.

“Thr Arg Arg Val Ala His Asn Ser Glu (TRRVAHNSE) [Clone 2]” was tested, and the “decrease in sinHIV-GFP infection rate” value [5] was “largest decrease”.

For “Trp Arg Gly Ala Ala Met Val Arg Gly (WRGAAMVRG) [Clone 6]”, the “decrease in sinHIV-GFP infection rate” value [5] was “largest decrease”.
